Experimental data reported in US20050054629A1, “Compounds and methods of treating cell proliferative diseases” (priority 2002, published 2005).
pIC50: −log10 of the molar value. Read-outs that look alike come from different tables or passages of the source.

What was measured:
MDA-MB-231 cells = experiment: Matrigel invasion assay (Boyden chamber); assay type: cell-based, human; conditions: for Invasion: MDA-MB-231, Boyden chamber, matrigel
Description: Chemoinvasion assay was performed in Boyden chamber as described by Albini et al (Cancer Res, 1987) with some modifications. Polycarbonate membranes with 8 μm pores were coated with matrigel (125 μg/cm^2) at room temperature for 48 h. Two hours before experiments, the matrix was […] with serum-free medium containing 0.1% BSA.
One day after seeding, 10^6 MDA-MB-231 cells were treated overnight with different concentrations of compounds (1, 10, 17.5, 25 and 50 μM). Cells were collected with Versene (Invitrogen), counted with trypan blue exclusion, rinsed twice in serum-free medium containing 0.1% BSA and resuspended in serum-free medium containing 0.1% BSA plus the appropriate concentration of compound. 10^5 treated cells were placed in the upper chamber. Medium containing 10% of FBS plus the appropriate concentration of compound was placed in the lower chamber as a chemoattractant. The Boyden chamber was incubated 6 hours at 37° C. before the cells were fixed and stained with Diff-Quick (Dade-Berhing). Cells on the upper part of the filters were removed using a cotton swab. Cells on the underside of the filters were visualised and counted under light microscope.

cell architecture = experiment: Cell architecture modification, phase contrast; assay type: cell-based; parameters: key: −: no effect of the compound was observed; +: an effect of the compound was observed
[1] = tested on: HCT116 colon adenocarcinoma; experiment: Cytotoxicity assay (MTT), 6 days; assay type: cell-based, human; conditions: 6 days of treatment, read-out: Toxicity 6d (IC 50, μM) HCT116
Description: (§1) Four human tumoral cell lines, namely HCT116 colon adenocarcinoma, H460 lung carcinoma, MCF-7 and MDA-MB-231 breast carcinoma cell lines, and three immortalized but non tumorigenic cell lines, namely NIH3T3 mouse fibroblasts and human breast-derived MCF10-A and MRC-5 were purchased at ATCC and cultured according to their recommendations. In order to determine the cytotoxicity associated with one compound, a microculture tetrazolium assay (MTT), as described by Carmichael et al (Cancer Res, 1996) with modifications, was used. Briefly, 5.10^3 or 2.10^4 cells were seeded per well in 24-well plates 24 hours before drug addition. Cells were treated with 0, 1, 10, 17.5, 25 and 50 μM of compound solubilized in DMSO, adjusting the total volume of DMSO (Dimethylsulfoxide) to 1%. Forty-eight hours or 6 days after treatment, the medium was replaced by PBS containing 0.5 mg/ml MTT (Sigma) and cells were incubated for 3 more hours at 37° C. before solubilization of formazan crystals in 100% DMSO. Absorbance was measured using a spectrophotometer at a wavelength of 550 nm. Cell surviving fraction and 50% inhibitory concentration were calculated. All assays were performed in triplicate.

MRC-5 = experiment: Cytotoxicity assay (MTT), 6 days; assay type: cell-based; conditions: Homo sapiens, MRC5, 144 h, 6 days of treatment, read-out: Toxicity 6d (IC 50, μM) MRC-5
Description: as §1

[2] = tested on: MDA-MB-231 breast carcinoma; experiment: Cytotoxicity assay (MTT), 6 days; assay type: cell-based; conditions: Homo sapiens, MDA-MB-231, 144 h, 6 days of treatment, read-out: Toxicity 6d (IC 50, μM) MDA231
Description: as §1

MCF-7 breast carcinoma = experiment: Cytotoxicity assay (MTT), 6 days; assay type: cell-based; conditions: Homo sapiens, MCF7, 144 h, 6 days of treatment, read-out: Toxicity 6d (IC 50, μM) MCF7
Description: as §1

H460 lung carcinoma = experiment: Cytotoxicity assay (MTT), 6 days; assay type: cell-based; conditions: Homo sapiens, NCI-H460, 144 h, 6 days of treatment, read-out: Toxicity 6d (IC 50, μM) H460
Description: as §1

NIH3T3 mouse fibroblasts = experiment: Cytotoxicity assay (MTT), 6 days; assay type: cell-based; conditions: NIH3T3, 144 h, 6 days of treatment, read-out: Toxicity 6d (IC 50, μM) NIH3T3
Description: as §1

MCF10-A = experiment: Cytotoxicity assay (MTT), 6 days; assay type: cell-based; conditions: Homo sapiens, MCF-10A, 144 h, 6 days of treatment, read-out: Toxicity 6d (IC 50, μM) MCF10-A
Description: as §1

MDA231 = experiment: Cytoskeleton analysis, actin staining (FITC-phalloidin); assay type: cell-based, human; conditions: 24 h treatment
Description: Since major rearrangements of cytoskeleton are observed in tumor cells and since the small GTPases are known to regulate these events, analysis of actin cytoskeleton was performed. Subconfluent cells seeded onto coverslips were treated with different concentration of compound (1, 10, 17.5, 25 and 50 μM) or vehicle for 24 h, before being fixed in 4% formaldehyde for 15 min., permeabilized in 0.2% Triton X100 for 5 minutes and incubated in PowerBlock (Biogenex) for 10 min. Actin filaments were stained with 0.5 μg/ml fluorescein isothiocyanate (FITC)-labelled phalloidin for 1 hour. Analysis was performed using an inverted fluorescent microscope.

HCT116 = experiment: Cell viability assay (MTT), Example 32; assay type: cell-based, human; conditions: Homo sapiens, HCT-116, 144 h; day 6, 10% FBS
Description: FIG. 7: Antiproliferative effect of compounds on HCT116 (top) and MDA-MB-231 (bottom) cell lines measured by MTT viability assay. 2.5 10^3 (HCT116) or 7.5 10^3 (MDA-MB-231) cells were seeded in 48-well plates in growth medium containing 10% FBS, with or without various concentrations of test compounds. Cell cultures were fed every 3 days with the appropriate media. Cell viability was determined on day 6. Data were analyzed and IC50s were calculated from the dose-response curves using GraphPad Prism.
In order to determine one compound effect on cell viability, microculture tetrazolium assay (MTT) was performed as described by Carmichael et al., (1996) with modifications. Four human tumoral cell lines, namely HCT116 colon adenocarcinoma, H460 lung carcinoma, MCF-7 and MDA-MB-231 breast carcinoma cell lines, and 3 immortalized but non tumorigenic cell lines, namely NIH3T3 mouse fibroblasts and human breast-derived MCF10-A and human lung-derived MRC-5 were purchased at ATCC and cultured according to their recommendations. Briefly, 2.5 10^3 to 2 10^4 cells per well were seeded in 48-well plates 24 hours before drug addition. Cells were treated with 0 to 200 μM (11 concentrations) of compound solubilized in DMSO, adjusting the final concentration of DMSO to 1% in the well. Six days after treatment, the medium was replaced by PBS containing 0.5 mg/ml MTT (Sigma) and cells were incubated for 1-3 hours at 37° C. before solubilization of formazan crystals in 100% DMSO. Absorbance was measured using a spectrophotometer at a wavelength of 550 nm. Data was analyzed using the GraphPad Prism software (GraphPad Software, Inc., San Diego, USA), and IC50 (dose leading to 50% cell death) was calculated from the dose-response curves.

HCT116 cells = experiment: Anchorage-independent cell growth assay in soft agar, Example 32; assay type: cell-based, human; conditions: 7 days
Description: FIG. 8: Effect of the treatment of HCT116 cells with the compounds on the size of the clones grown in soft agar. 5 10^3 cells were seeded in 24-well plates in 0.3% agar-containing medium supplemented with the designated amount of compounds. After 7 days of incubation at 37° C., pictures were taken of each well and were analyzed using the ImageJ image analysis software. In particular, clone size and number were calculated. The data were analyzed using GraphPad Prism, and IC50 was calculated.
In order to evaluate the effect of one compound on the capacity of tumour cells to grow without anchorage, HCT116 cells were seeded in soft agar. In contrast to microplate assays which average the drug's effects over an entire cell population, clonogenic assays offer the possibility of distinguishing cytotoxic agents (i.e., decreased colony number) from cytostatic agents (i.e., decreased colony size without decreased colony number; Murphy M. J. et al., 1996).
Briefly, 5 10^3 HCT116 cells were resuspended in 300 pi of complete medium containing 0.3% soft-agar (Difco) and different concentrations of compound (8 concentrations ranging from 0 to 30 μM). Cells were then poured on a solidified layer of medium containing 0.5% of soft agar plus the compound at the same concentration as in the upper layer. Cells were incubated for 7 days' at 37° C. before pictures of each well were taken using a phase contrast microscope (Nikon) and a digital camera (Nikon Coolpix 990). Pictures were subsequently analyzed using a free image analysis software from the NIH (ImageJ) allowing to determine clones size and number.
Data was analyzed using the GraphPad Prism software, and IC50 (dose leading to a 50% decrease of clone size or number) was calculated from dose-response curves. The ratio IC50 clone size/IC50 clone number was then calculated. When this ratio is equal to 1 (IC50 size=IC50 number), the compound is referred to as “cytotoxic”. When the ratio is close to 0 (IC50 size<<IC50 number), the compound is referred to as “cytostatic” (FIG. 6).

Row | pIC50 (HCT116) | IC50 anchorage-independent growth of HCT116 (clone size) in soft agar (HCT116 cells) | Structure (SMILES) | Invasion (MDA-MB-231 cells) | Cell architecture modification phase contrast (cell architecture) | IC50 [1] [µM] | IC50 ([1]; Homo sapiens, HCT-116, 144 h) [µM] | IC50 (MRC-5) [µM] | IC50 [2] [µM] | IC50 (MCF-7 breast carcinoma) [µM] | IC50 (H460 lung carcinoma) [µM] | IC50 (NIH3T3 mouse fibroblasts) [µM] | IC50 (MCF10-A) [µM] | Cell architecture modification actin staining MDA231 (MDA231) | concentration giving significant inhibition of invasive properties of MDA-MB-231 cells (MDA-MB-231 cells) [µM]
1 |  |  | O=c1cc(COCc2ccccc2)occ1OCCCCCOc1ccc(Cl)c(Cl)c1 [EH7701, 2-(Benzyloxymethyl)-5-[5-(3,4-dichlorophenyloxy)pentyloxy]-4H-pyran-4-one] | No effect | − | 7.5 | ≤ 15 | 20 | 22.5 | 17.5 | 6 | 40 | > 50 | cell spreading | 
2 |  |  | CCCc1c(OCCCCCCOc2coc(CO)cc2=O)ccc(Cl)c1Cl [EH16701] | No effect | − | 8.5 | ≤ 15 | > 50 | 47.5 | 15 | 7 | > 50 | > 50 | cell spreading | 
3 |  |  | CCCc1c(OCCCCCCCOc2coc(CO)cc2=O)ccc(Cl)c1Cl [EH17701, 5-[7-(3,4-Dichloro-2-propylphenyloxy)heptyloxy]-2-(hydroxymethyl)-4H-pyran-4-one] |  | − |  |  | 17.5 | 35 | 15 | 5 to 10 |  | > 50 | cell spreading | 17.5
4 |  |  | CCCc1cc(Cl)c(Cl)cc1OCCCCCOc1coc(CO)cc1=O [EH30701, 5-[5-(4,5-Dichloro-2-propylphenyloxy)pentyloxy]-2-(hydroxymethyl)-4H-pyran-4-one] | Decrease | − | 8 | ≤ 15 |  | 15 | 20 | 15 |  |  | cell spreading | 17.5
5 | 5.40 to 5.82 | micromolar range | O=c1cc(COC2CCCCO2)occ1OCCCCCn1ccc2cc(F)ccc21 (stereo not drawn) [EHT 0533, 5-[5-(5-Fluoro-indol-1-yl)-pentyloxy]-2-(tetrahydro-pyran-2-yloxymethyl)-4H-pyran-4-one] |  |  |  |  |  |  |  |  |  |  |  | 
6 | 5.40 to 5.82 | micromolar range | Cc1cc2ccccc2n1CCCCCOc1coc(COC2CCCCO2)cc1=O (stereo not drawn) [EHT 2427, 5-[5-(2-Methyl-indol-1-yl)-pentyloxy]-2-(tetrahydro-pyran-2-yloxymethyl)-4H-pyran-4-one] |  |  |  |  |  |  |  |  |  |  |  | 
7 | 5.40 to 5.82 | micromolar range | O=c1cc(COC2CCCCO2)occ1OCCCCCn1ccc2ccccc21 (stereo not drawn) [EHT 7395, 5-(5-Indol-1-yl-pentyloxy)-2-(tetrahydro-pyran-2-yloxymethyl)-4H-pyran-4-one] |  |  |  |  |  |  |  |  |  |  |  | 
